Test results taken from patent US4990499A, “Anti-herpes simplex virus activity of 5-alkoxymethyl-2'-deoxycytidimes and their 5-monophosphates” (priority 1989, dated 1991).

Columns and labels:
[1] = system: Herpes simplex virus type 2 (HSV-2); assay: Antiviral activity against HSV-2, viral plaque reduction (ED50); assay type: cell-based; conditions: 50 PFU
Experimental: Infected cells were treated with different concentrations of MMdCyd and the concentration required to reduce viral plaque formation by 50%, i.e. ED50, was determined.
^a ED50 : Concentration required to reduce viral plaque formatio
The antiviral activity of MMdCyd in the presence of H4 dUrd was determined against several strains of HSV-1 and HSV-2.
^a Antiviral assays were carried out using Vero cells. Virus input 50
^b ED50 : Concentration required to reduce viral plaque formatio

HSV-1, KOS [2] = assay: HSV-1 KOS infectivity in Vero cells prior to washing of drugs; assay type: cell-based, Herpes simplex virus type 1; conditions: for Virus Infectivity (% of virus control): combination with H4 dUrd 530 μM
Experimental: Vero cells were infected with HSV-1, KOS strain and then treated with MMdCyd in various quantities, and also with MMdCyd in various quantities together with a constant amount of H4 dUrd. The virus infectivity was observed and the results are given in Table 5 and are shown graphically in FIG. 3.
^a Virus infectivity was scored using following parameters: rounding
of cells, plaque formation and loss of monolayer structure.
^b Concentration of H4 dUrd used was 530 μM (125 μg/ml).

HSV-1, KOS [3] = assay: HSV-1 KOS infectivity (virus yield) in Vero cells after removal of drugs; assay type: cell-based, Herpes simplex virus type 1; conditions: for Virus Infectivity (% of virus control): after drug removal, combination with H4 dUrd 530 μM, 4320 min
Experimental: Vero cells were infected with HSV-1, KOS strain and then samples of the infected cells were treated with MMdCyd in various quantities and with MMdCyd in various quantities together with 530 μM of H4 dUrd. Cells were washed twice with 0.4 ml of MEM to remove residual drug, overlaid with growth medium and incubated for 72 h. The virus was harvested by two cycles of freezing and thawing. The culture fluid from each treatment was pooled and assayed for virus yield.
^b H4 dUrd 530 μM (125 μg/ml) was added along with MMdCyd.

[4] = system: Deoxynucleoside Triphosphate (dNTP) Pools in Uninfected Vero Cells; assay: Deoxynucleoside triphosphate (dNTP) pools in uninfected (mock-infected) Vero cells; assay type: cell-based; conditions: Table 7, uninfected Vero cells, treatment 7 hours, ± S.E.
In short: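 Vero cells were mock-infected for 1 h, then treated with MMdCyd, H4 dUrd, both together, dGUO ± H4 dUrd, or N-methyl-MMdCyd, with untreated cells as control. dNTP pools were measured, and values are means of at least two assays of triplicate cell cultures.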

[5] = system: Deoxynucleoside Triphosphate (dNTP) Pools in Vero Cells Infected with Herpes Simplex Virus Type 1; assay: Deoxynucleoside triphosphate (dNTP) pools in HSV-1 infected Vero cells; assay type: cell-based; conditions: Table 8, HSV-1 KOS infected Vero cells, 10 PFU/cell, treatment 7 hours, ± S.E.
In short: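 Vero cells infected with HSV-1 KOS at 10 PFU/cell for one hour, then treated for seven hours with dGuo alone or dGuo plus H4 dUrd added right after adsorption. Intracellular dNTP pools then assayed, with untreated Vero cells as control.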

[6] = Cytotoxicity (MTC), RK-13 cells; assay type: cell-based; conditions: rabbit, read-out: minimum cytotoxic concentration (MTC)
Experimental: (§1) Minimum cytotoxic concentrations (MTC) for MMdCyd was greater than 1,000 μg/ml for RK-13, HEP-2 and Vero cells.
(§2) ^c MTC = Minimum toxic concentration concentration required to
(§3) produce definite evidence of microscopic toxicity on confluent monolayer

[7] = Cytotoxicity (MTC), HEP-2 cells; assay type: cell-based; conditions: human, read-out: minimum cytotoxic concentration (MTC)
Experimental: as §1, §2, §3

[8] = Cytotoxicity (MTC), Vero cells; assay type: cell-based; conditions: monkey
Experimental: (§4) The antiviral activity, ^a cyctotoxicity* and antiviral indices of MMdCyd in the presence of H4 dUrd, dGuo and H4 dUrd+dGuo were determined.
as §1, §2, §3

Vero cells = assay: Cytotoxicity (MTC), Vero cells; assay type: cell-based; conditions: monkey
Experimental: as §4, §1, §2, §3

[9] = Inhibition of proliferation (MTC), Raji cells; assay type: cell-based; conditions: human, highest concentration tested
Experimental: (§5) Inhibitory effects of MMdCyd on the proliferation of murine and human tumor cells was also investigated. MTC for MMdCyd was greater than 400 μg/ml (highest concentration tested) against Raji, MOLT/4F, MT4, CEM and H-9 (human) and L1210 (murine Leukemia) cells.

[10] = Inhibition of proliferation (MTC), MOLT/4F cells; assay type: cell-based; conditions: human, highest concentration tested
Experimental: as §5

[11] = Inhibition of proliferation (MTC), MT4 cells; assay type: cell-based; conditions: human, highest concentration tested
Experimental: as §5

[12] = Inhibition of proliferation (MTC), H-9 cells; assay type: cell-based; conditions: human, highest concentration tested
Experimental: as §5

[13] = Inhibition of proliferation (MTC), L1210 cells; assay type: cell-based, murine; conditions: mouse, highest concentration tested
Experimental: as §5

[14] = system: Herpes simplex virus type 1 (HSV-1); assay: Antiviral activity against HSV-1, viral plaque reduction (ED50); assay type: cell-based

COCc1cn([C@H]2C[C@H](O)[C@@H](CO)O2)c(=O)nc1N [MMdCyd, 5-methoxymethyl-2'-deoxycytidine]
EC50 ([1]; HSV-2 333, Vero): 175 µM | EC50 ([1]; HSV-2 MS, Vero): 228 µM | EC50 ([1]; HSV-2 X-265, Vero): 130 µM | viral infectivity, conclusion (HSV-1, KOS [2]; Example 7): reduces viral infectivity | Virus Infectivity (% of virus control) (HSV-1, KOS [2]; MMdCyd 1.6 μM): 90 % of virus control | Virus Infectivity (% of virus control) (HSV-1, KOS [2]; MMdCyd 3.2 μM): 80 % of virus control | Virus Infectivity (% of virus control) (HSV-1, KOS [2]; MMdCyd 6.4 μM): 66 % of virus control | Virus Infectivity (% of virus control) (HSV-1, KOS [2]; MMdCyd 12.8 μM): 64 % of virus control | Virus Infectivity (% of virus control) (HSV-1, KOS [2]; MMdCyd 25.6 μM): 45 % of virus control | Virus Infectivity (% of virus control) (HSV-1, KOS [2]; MMdCyd 51.2 μM): 32 % of virus control | Virus Infectivity (% of virus control) (HSV-1, KOS [2]; MMdCyd 104 μM): 20 % of virus control | Virus Infectivity (% of virus control) (HSV-1, KOS [2]; MMdCyd 208 μM): 9 % of virus control | Virus Infectivity (% of virus control) (HSV-1, KOS [2]; MMdCyd 416 μM): 0 % of virus control | Virus Infectivity (% of virus control) (HSV-1, KOS [2]; MMdCyd 832 μM): 0 % of virus control | production of infectious virus particles (HSV-1, KOS [2]; combination: MMdCyd >12 μM with H4 dUrd (printed 530 M)): significantly decreased | effectiveness against the virus, conclusion (HSV-1, KOS [3]; Example 8): effective against the virus | Virus Infectivity (% of virus control) (HSV-1, KOS [3]; MMdCyd 1.6 μM): 100 % of virus control | Virus Infectivity (% of virus control) (HSV-1, KOS [3]; MMdCyd 3.2 μM): 99 % of virus control | Virus Infectivity (% of virus control) (HSV-1, KOS [3]; MMdCyd 6.4 μM): 99 % of virus control | Virus Infectivity (% of virus control) (HSV-1, KOS [3]; MMdCyd 12.8 μM): 99 % of virus control | Virus Infectivity (% of virus control) (HSV-1, KOS [3]; MMdCyd 25.6 μM): 99 % of virus control | Virus Infectivity (% of virus control) (HSV-1, KOS [3]; MMdCyd 51.2 μM): 70 % of virus control | Virus Infectivity (% of virus control) (HSV-1, KOS [3]; MMdCyd 104 μM): 55 % of virus control | Virus Infectivity (% of virus control) (HSV-1, KOS [3]; MMdCyd 208 μM): 40 % of virus control | Virus Infectivity (% of virus control) (HSV-1, KOS [3]; MMdCyd 416 μM): 20 % of virus control | Virus Infectivity (% of virus control) (HSV-1, KOS [3]; MMdCyd 832 μM): 10 % of virus control | virus infectivity after washing of drugs (HSV-1, KOS [3]; less than 26 μM MMdCyd): no decrease in virus infectivity | dATP pool [4]: 8.3 ± 0.32 .rho.moles/10^6 cells | dCTP pool [4]: 14.2 ± 1.30 .rho.moles/10^6 cells | dGTP pool [4]: 52 ± 1.84 .rho.moles/10^6 cells | dTTP pool [4]: 44 ± 1.67 .rho.moles/10^6 cells | dATP pool [5]: 25.2 ± 0.49 .rho.moles/10^6 cells | dCTP pool [5]: 29.6 ± 1.85 .rho.moles/10^6 cells | dGTP pool [5]: 72.6 ± 2.07 .rho.moles/10^6 cells | dTTP pool [5]: 1072 ± 11.2 .rho.moles/10^6 cells | MCC [6]: > 1000 µg/mL | MCC [7]: > 1000 µg/mL | MCC [8]: > 1000 µg/mL | MTC (minimum toxic concentration) (Vero cells): > 1,000 μg/ml | MCC [9]: > 400 µg/mL | MCC [10]: > 400 µg/mL | MCC [11]: > 400 µg/mL | MCC [12]: > 400 µg/mL | MCC [13]: > 400 µg/mL | EC50 ([14]; HSV-1 76, HEP-2, 50 PFU): 22 µM | EC50 ([14]; HSV-1 (strain cell empty, under NAH), RK-13, 50 PFU): 5 µM | EC50 ([14]; HSV-1 KOS, Vero, 20 PFU, deaminase inhibitor 125 μg/ml, added immediately after infection): 12 to 17 µM
